US20260242738A1, “ALK5 INHIBITORS FOR EFFICIENT DERIVATION OF MESENCHYMAL STEM CELLS FROM EMBRYONIC STEM CELLS” (SCRIPPS HEALTH, priority 2022, published 2026)

Key:
Assay type in all cases: cell-based, human
[1] = test system: H9 ESC; test: Gene expression profiling of ES-MSC relative to undifferentiated ESC
Description: An overview of the differentiation process is provided in FIG. 1, panel K. To create cell clusters or embryoid bodies of uniform size, ESCs were removed from CellStart culture using Accutase® for 2-5 minutes until single cells were observed. Cells (2.5-3×10^5 cells per ml) were suspended in StemPro human ESC serum free medium (ThermoFisher) with 10 μM Y-27632 (EMD Chemicals, Gibbstown, NJ) and 40 ng/ml FGF (Life Technologies, Carlsbad, CA) in a 125 ml spinner culture flask (Corning Inc., Corning, NY) on a magnetic stirrer (CimarecTM Biosystem Slow-Speed Stirrer, ThermoFisher) at 70 rpm for 24 hours at 37° C. with 5% CO2 to form small cell clusters (minimum total cells was 7.5×10^6 in 30 ml). After 24 hours, the cell clusters were suspended at 2.5-3×10^5 cells per ml in ultra-low adherent 6 well plates (Corning) in […] free medium (ThermoFisher) supplemented with 2 mM L-glutamine (ThermoFisher Scientific), 50 μg/ml Ascorbic acid (Stemcell Technologies, Vancouver, Canada) and 1.8 μl/ml ITS-G (100× Insulin-Transferrin-Selenium; ThermoFisher); termed as “complete SP-34 medium”. […] Total RNA was extracted from using the RNeasy kit as recommended by the manufacturer (QIAGEN, Valencia, CA). The High-Capacity cDNA Reverse Transcription Kit (Applied Biosystems, Foster City, California) kit was used to make cDNA and the following verified primer/probe assays were purchased from Applied Biosystems. Expression of the following genes was quantified POU5F1/OCT4 and SOX2 (for pluripotency); FOXA1 and SOX17 (for endoderm); NES and PAX6 (for ectoderm); NKX2-5, MSX1, NCAM1, and SOX9 (for mesoderm); ITGB1/CD29 (for MSC phenotype); and COL1A1, COL2A1, COL10A1, COMP, ACAN, and SOX9 and RUNX2 (for chondrogenesis). Gene expression was normalized to GAPDH as previously reported. Undifferentiated ESC served as a baseline for relative changes in gene expression in differentiated ES-MSC cells. Differentiated ES-MSC cells in monolayer served as baseline for changes in gene expression in pellets or hydrogel constructs.

[2] = test system: HADC100 ESC; test: Gene expression of ES-MSC in monolayer culture; conditions: comparison of ALK5 inhibitors
Description: An overview of the differentiation process is provided in FIG. 1, panel K. To create cell clusters or embryoid bodies of uniform size, ESCs were removed from CellStart culture using Accutase® for 2-5 minutes until single cells were observed. Cells (2.5-3×10^5 cells per ml) were suspended in StemPro human ESC serum free medium (ThermoFisher) with 10 μM Y-27632 (EMD Chemicals, Gibbstown, NJ) and 40 ng/ml FGF (Life Technologies, Carlsbad, CA) in a 125 ml spinner culture flask (Corning Inc., Corning, NY) on a magnetic stirrer (CimarecTM Biosystem Slow-Speed Stirrer, ThermoFisher) at 70 rpm for 24 hours at 37° C. with 5% CO2 to form small cell clusters (minimum total cells was 7.5×10^6 in 30 ml). After 24 hours, the cell clusters were suspended at 2.5-3×10^5 cells per ml in ultra-low adherent 6 well plates (Corning) in […] free medium (ThermoFisher) supplemented with 2 mM L-glutamine (ThermoFisher Scientific), 50 μg/ml Ascorbic acid (Stemcell Technologies, Vancouver, Canada) and 1.8 μl/ml ITS-G (100× Insulin-Transferrin-Selenium; ThermoFisher); termed as “complete SP-34 medium”. […] Expression of the following genes was quantified POU5F1/OCT4 and SOX2 (for pluripotency); FOXA1 and SOX17 (for endoderm); NES and PAX6 (for ectoderm); NKX2-5, MSX1, NCAM1, and SOX9 (for mesoderm); ITGB1/CD29 (for MSC phenotype); and COL1A1, COL2A1, COL10A1, COMP, ACAN, and SOX9 and RUNX2 (for chondrogenesis). […]

[3] = test system: H9 ES-MSC; test: Chondrogenic gene expression of pellets relative to monolayer controls
Description: (§1) Monolayer-expanded ES-MSC (passage 2-5) were detached using Accutase® and 0.5×10^6 cells in 0.5 ml of chondrogenic medium were centrifuged at 900 rpm (~770 G) for 5 minutes to form high-density pellets. At least 5-6 pellets, for each ES-MSC condition, were cultured in serum-free chondrogenic medium consisting of Dulbecco's Modified Eagle Medium (Mediatech Inc., Manassas, VA), 1×ITS supplement (Sigma-Aldrich, St. Louis, MO), 100 nM Dexamethasone (Sigma), 1.25 mg/ml human serum albumin (Bayer, Leverkusen, Germany), 100 μM ascorbic acid 2-phosphate (Sigma), 1% penicillin/streptomycin/gentamycin (PSG, Gibco, Carlsbad, CA), and 10 ng/ml TGFβ3 (PeproTech, Rocky Hill, NJ). Pellets for ex vivo implantation were cultured for 3 days before implantation; pellets for histologic or gene expression analysis were maintained in culture for 3 weeks with media changes every 3 to 4 days.
(§2) Total RNA was extracted from using the RNeasy kit as recommended by the manufacturer (QIAGEN, Valencia, CA). […] Expression of the following genes was quantified POU5F1/OCT4 and SOX2 (for pluripotency); FOXA1 and SOX17 (for endoderm); NES and PAX6 (for ectoderm); NKX2-5, MSX1, NCAM1, and SOX9 (for mesoderm); ITGB1/CD29 (for MSC phenotype); and COL1A1, COL2A1, COL10A1, COMP, ACAN, and SOX9 and RUNX2 (for chondrogenesis). […]

[4] = test system: HADC 100 ES-MSC; test: as above; conditions: HADC 100 ES-MSC pellets
Description: as §1, §2

[5] = test system: HAD ES-MSC; test: Fibrin-ECM hydrogel construct culture on needle array; conditions: 20×10^6 cells per ml, 3 weeks of culture, N=8
Description: Monolayer cultured ES-MSC were suspended in a hydrogel wafer composed of collagen II (Innovative Research Inc. Novi, MI), hyaluronate (Supartz FX sodium hyaluronate, Seikagaku Corp. Tokyo, Japan), chondroitin sulfate (Sigma-Aldrich) and fibrin (Baxter Healthcare, Deerfield, IL) at a density of 20×10^6 cells per ml. The fibrinogen and thrombin components were prepared separately. To each fibrinogen component, 2 mg/ml sodium hyaluronate, 2 mg/ml chondroitin sulfate and 6 mg/ml collagen II was added (2× concentration of final). Cells were added to the thrombin component at a density of 40×10^6 cells per ml. Thrombin and fibrinogen components in individual syringes were attached to a Baxter DUO mixing syringe and extruded to form the coagulated constructs. The constructs were either directly implanted into ex vivo cartilage tissue or coagulated in 6 well tissue culture plates for 4 to 8 minutes before 4-6 ml of chondrogenic medium was added. To prevent shrinkage of the constructs during culture, the gels were held on AdminPatch microneedle arrays (AdminMed, Sunnyvale, CA) for the duration of their culture.
Cell pellets and explants were fixed in Z-Fix (3.7% formaldehyde, Anatech Ltd., Battle Creek, MI), processed for embedding in paraffin, and cut into 4 μm-thick sections. Sections were stained with Safranin-O and Fast Green to visualize glycosaminoglycan distribution in the tissues. […]

[6] = ES-MSC relative to undifferentiated ESC

NC(=O)c1ccc(-c2nc(-c3ccc4c(c3)OCO4)c(-c3ccccn3)[nH]2)cc1 [SB431542]
expression of SOX9 and COL2A1 (chondroprogenitor phenotype) [1, 6]: Increased expression | expression of mesoderm specific markers (NCAM1, MSX1, NKX2-5) and MSC marker (ITGB1) [1, 6]: significantly upregulated | expression of pluripotent markers POU5F1 (OCT4) and SOX2 ([1]; H9 ES-MSC relative to undifferentiated ESC): significantly down regulated | generating mesoderm markers (NCAM1, SOX9) and increasing COL2A1 expression [2]: superior | chondrogenic genes (COL2A1, ACAN, COMP and SOX9) relative to monolayer controls [3]: higher levels | chondrogenic genes (COL2A1, ACAN, COMP and SOX9) relative to monolayer controls [4]: higher levels | cartilaginous tissue in fibrin-ECM construct (Safranin O fast green) [5]: production of cartilaginous tissue
